Test results published in BindingDB's records for doi:10.1021/jm070851i (Wyeth Research, 2007).

Biological target: T1, 3-phosphoinositide-dependent protein kinase 1 (Homo sapiens, UniProt O15530)
T1 sequence (O15530 whole entry): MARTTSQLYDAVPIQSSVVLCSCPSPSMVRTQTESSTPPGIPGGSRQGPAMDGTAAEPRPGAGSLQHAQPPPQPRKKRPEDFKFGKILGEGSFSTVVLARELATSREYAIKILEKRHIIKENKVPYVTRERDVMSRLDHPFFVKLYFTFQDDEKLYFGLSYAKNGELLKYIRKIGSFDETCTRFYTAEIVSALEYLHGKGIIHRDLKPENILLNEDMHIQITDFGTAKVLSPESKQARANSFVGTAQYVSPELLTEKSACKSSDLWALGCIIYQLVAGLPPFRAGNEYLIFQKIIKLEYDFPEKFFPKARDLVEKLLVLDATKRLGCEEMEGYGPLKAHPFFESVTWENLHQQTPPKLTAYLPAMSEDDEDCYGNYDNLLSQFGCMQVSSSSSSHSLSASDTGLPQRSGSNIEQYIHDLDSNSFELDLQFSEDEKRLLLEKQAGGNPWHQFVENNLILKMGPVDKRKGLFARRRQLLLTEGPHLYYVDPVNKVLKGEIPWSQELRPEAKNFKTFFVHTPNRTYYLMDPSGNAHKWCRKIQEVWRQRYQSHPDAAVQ
Assay: ELISA assay
Conditions: pH 7.4; 23 °C
Procedure: A homogeneous in vitro assay based on a LANCE format was first used for high-throughput screening. […] ELISA IC50s were determined by Microsoft Excel data analysis wizard model 63 with the luminescent signal from wells without compound treatment as 100%.

SMILES: COc1cc2c(cc1NCCN1CCOCC1)ncc1c(N)nc3c(C)c(N)ccc3c12 [16-methoxy-6-methyl-15-N-[2-(morpholin-4-yl)ethyl]-8,12-diazatetracyclo[8.8.0.0^{2,7}.0^{13,18}]octadeca-1(10),2(7),3,5,8,11,13,15,17-nonaene-5,9,15-triamine]
- IC50: 300 nM
